Test results from patent US9433683B2, “Reversible pegylated drugs” (Yeda Research and Development Co., Ltd., priority 2003, dated 2016).
Where “and” joins values, the source holds several entries; their conditions need not be identical. Identical values can stand only once.

Columns and labels:
[1] = target: T1, hGH-receptor preparation extracted from rabbit liver plasma membranes (Oryctolagus cuniculus, UniProt P19941); assay: 125I-hGH displacement from hGH-receptor preparation; format: binding
T1 construct: enriched hGH-receptor preparation extracted from rabbit liver plasma membranes; from tissue; host or cells: rabbit liver plasma membranes
T1 sequence (P19941 19-638): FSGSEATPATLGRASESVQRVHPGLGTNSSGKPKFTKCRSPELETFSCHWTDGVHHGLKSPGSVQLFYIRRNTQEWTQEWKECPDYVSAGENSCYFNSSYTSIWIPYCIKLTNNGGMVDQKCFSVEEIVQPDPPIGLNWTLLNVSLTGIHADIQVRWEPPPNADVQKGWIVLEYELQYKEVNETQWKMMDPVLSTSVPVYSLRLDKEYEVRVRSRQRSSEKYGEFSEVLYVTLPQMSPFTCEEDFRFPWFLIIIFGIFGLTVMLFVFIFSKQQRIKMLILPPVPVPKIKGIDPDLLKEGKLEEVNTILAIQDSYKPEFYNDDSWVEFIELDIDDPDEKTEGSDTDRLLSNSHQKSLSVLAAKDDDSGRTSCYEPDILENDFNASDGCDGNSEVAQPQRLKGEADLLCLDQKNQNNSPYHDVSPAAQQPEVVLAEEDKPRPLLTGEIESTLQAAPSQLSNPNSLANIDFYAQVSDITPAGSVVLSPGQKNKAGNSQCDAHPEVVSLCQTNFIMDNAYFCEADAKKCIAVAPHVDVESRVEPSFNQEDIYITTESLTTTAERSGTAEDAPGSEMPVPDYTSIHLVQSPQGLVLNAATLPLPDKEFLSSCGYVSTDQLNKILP
Protocol: PEG40000-FMS-hGH (1 mg/ml) was incubated in 0.1 M phosphate buffer, 0.6% BSA and −2 mM NaN3 at 37° C. Aliquots were withdrawn at the indicated time points, and analyzed for their potencies to displace ^125I-hGH from enriched hGH-receptor preparation extracted from rabbit liver plasma membranes. Native hGH displaces ^125I-hGH in this assay half maximally at a concentration of 0.3±0.03 nM. […] PEG40000FMS-hGH (1 mg protein) was incubated as described above. At the indicated time points, 0.1 ml aliquots withdrawn and subjected to analytical HPLC analysis.
The hGH displacement assay was performed as previously described (Tsushima et al., 1980).

[2] = test system: rat adipocytes; assay: Lipogenesis ([U-14C]glucose incorporation into lipids) in rat adipocytes; format: cell-based
Protocol: (4A) Insulin (17.24 nmoles in 0.2 ml 0.01 M NaHCO3) reacted with increasing concentrations of PEG5000-Fmoc-OSu at a molar excess over the protein as indicated in the figure for 2 hours at 25° C. The number of free amino groups that remained unmodified were quantitated with TNBS.
PEG5000-Fmoc-insulin conjugates containing one and two moles of PEG5000-Fmoc/mole insulin were incubated at a concentration of 0.172 μM in 0.1 M NaHCO3-0.5% bovine serum albumin and 1 mM NaN3 at 37° C. At the indicated time points aliquots were analyzed (in several concentrations for each aliquot) for their lipogenic potencies in rat adipocytes.
Results are expressed as a percentage of maximal stimulation.
(ii) Rat adipocytes were prepared from fat pads of male Wistar rats (100-200 gr) by collagenase digestion as described (Rodbell, 1964). The fat pads were cut into small pieces with scissors and suspended in 3 ml of KRB buffer containing NaCl, 110 mM; NaHCO3, 25 mM; Kcl, 5 mM; KH2PO4, 1.2 mM; CaCl2, 1.3 mM; MgSO4, 1.3 mM; and 0.7% BSA (pH 7.4). […] Five ml of buffer was then added, and the cells were passed through a mesh screen. The cells were then allowed to stand for several minutes in a 15 ml plastic test tube at room temperature, floating, and the buffer underneath was removed. This procedure (suspension, floating, and removal of buffer underneath) was repeated three times.
(iii) Lipogenesis (incorporation of [U-^14C] glucose into the lipids of intact adipocytes). The incorporation of [U-^14C] glucose into adipose tissue in rat adipocytes was performed as described (Moody et al., 1974). Adipocyte suspensions (3×10^5 cells/ml) were divided into plastic vials (0.5 ml per vial) and incubated for 60 min at 37° C. under an atmosphere of carbogen with 0.2 mM [U-^14C]glucose, in either the absence or presence of insulin. Lipogenesis was terminated by adding toluene-based scintillation fluid (1.0 ml per vial) and the radioactivity in extracted lipids was counted.
Rat adipocytes were prepared from the fat pads of male Wistar rats (100-200 g) by collagenase digestion (Rodbel, 1964). Lipogenesis (during which [U^14-C] glucose was incorporated into the lipids) was performed using the procedure of Moody et al (Moody et al., 1974). Diabetes was induced by a single intravenous injection of freshly prepared streptozocin (STZ) solution (55 mg/kg body wt) as previously described (Meyerovitch et al., 1987). Rats were maintained at 24° C. under conditions of controlled lighting and were fed ad libitum. Blood samples for the analysis of blood glucose were taken from the tail veins and measured with a glucose analyzer (Beckman Instruments, Fullerton, Calif.) by the glucose oxidase method. Groups consisted of five Wistar rats weighing 170±5 g. Data are presented as means±SE.

[3] = test system: C57BL/6J male mice; assay: Food intake (re-feeding after 24 h starvation) in mice; format: in vivo, mouse
Protocol: Drinking water was provided at all times.
Results are average of four identical experiments.
Drinking water was provided at all times. […] A minimum interval of 1 h was introduced between injection and re-feeding to avoid a stress-dependent decrease in food intake. The amount of food consumed per group was determined at the end of the feeding period. Remaining chow was weighed after the 2 h re-feeding period and the cumulative food intake per 10 mice was calculated. Values of food intake in replicate experiments were normalized according to the saline controls. Results are expressed as food intake per 10 mice±SD from 2-5 replicate experiments.
(vi) Statistical analysis. The significance of differences in food consumption was determined by the Student's t-test, using the total weight of food consumed by each group of 10 mice as a single value. A saline-injected group of 10 mice was included in each experiment as a control. A two-tailed, paired t-test was performed between the control and treated groups.

[4] = test system: CD1-mice; assay: Glucose-lowering potency of insulin and PEG5000-Fmoc-insulin in mice (SC or IP); format: in vivo, mouse
Protocol: Mice received SC, either native insulin (Zn^2+-free, 1.72 nmole/mouse in 0.2 ml PBS buffer) or (PEG5000-Fmoc)1-insulin (17.2 nmole/mouse, in 0.2 ml PBS buffer). Blood glucose levels were determined at the indicated time points. Each point is the arithmetic mean±SEM of blood glucose of five mice.
Groups of mice received IP either insulin (Zn^2+-free, 0.345 nmol/mouse, in 0.2 ml PBS buffer) or (PEG5000-Fmoc)1-insulin (3.45 nmoles/mouse, in 0.2 ml PBS buffer). Blood glucose levels were determined at the indicated time points. Each point in the figure is the arithmetic mean±SEM of five mice.
(iv) Glucose-lowering potency of insulin and its derivatives was determined in mice following administration under the conditions specified in each experiment. […] Each group consisted of 4-5 mice. Data are presented as means±SEM.
Native insulin (Zn^2+ free, 1.72 nmol/mouse) or (PEG5000-Fmoc)1-insulin (17.2 nmoles/mouse) were administered subcutaneously to groups of mice (n=5 in each group), and the glucose lowering profiles were determined. Native insulin reduced blood glucose level maximally at 30 min.
In order to differentiate between these factors, the subcutaneous compartment was bypassed by administering native insulin (Zn^2+-free, 0.345 nmoles/mouse, in 0.2 ml PBS buffer) or (PEG5000-Fmoc)1-insulin (3.45 nmoles/mouse, in 0.2 ml PBS buffer) intraperitoneally. The glucose lowering capacities were then monitored. Blood glucose levels were determined at different time points.

[5] = test system: rat adipocytes; assay: Lipogenesis ([U-14C]glucose incorporation into lipids) in rat adipocytes; format: cell-based; settings: Example 34 assay, 2 h at 37° C.; HSA conjugates taken as 24±3 μg insulin per mg HSA
[6] = Pharmacokinetic profile of SC 125I-insulin and 125I-HSA in rats; settings: 10 μg 125I-labeled protein
Protocol: Blood aliquots obtained from the tail vein at the indicated time points were spotted onto Whatman #3 paper and weighed immediately. Each paper was washed with 10% TCA and measured for its radioactive content. […] Each point in the figure represents the arithmetic mean of 5 rats±SE.
Rats were maintained at 24° C. under conditions of controlled lighting and were fed ad libitum. […] Data are presented as means±SE.
For comparison, we subcutaneously administered ^125I-insulin under similar experimental conditions.

[7] = test system: Escherichia coli (E. coli strain N-4156-W.T); assay: Inhibition of E. coli replication (antibacterial potency of gentamicin and PEG-Fmoc-gentamicin); format: cell-based
[8] = human, in vivo; cited from earlier work
[9] = Hydrolysis of conjugates / release of parent drug upon incubation at pH 8.5, 37° C. (HPLC or TNBS)
[10] = Clark et al., 1996; cited from earlier work
[11] = SC 5 nmol/mouse, 18 h prior to re-feeding

(PEG40-FMS)2-hGH: two PEG40-FMS moieties linked to hGH
native-receptor binding capacity following 50 hours of incubation ([1]; 37° C., normal rat serum or pH 8.5): 70-80%

PEG5000-Fmoc-insulin: insulin preparations with 0.3 to 2.2 mol PEG5000-Fmoc incorporated per mol insulin
biological (lipogenic) potency relative to native insulin ([2]; 0.3 mol PEG5000-Fmoc/mol insulin incorporated): 87±4% | biological (lipogenic) potency relative to native insulin ([2]; 0.6 mol PEG5000-Fmoc/mol insulin incorporated): 60±3% | biological (lipogenic) potency relative to native insulin ([2]; 1.1 mol PEG5000-Fmoc/mol insulin incorporated): 8±1% | biological (lipogenic) potency relative to native insulin ([2]; 1.5 mol PEG5000-Fmoc/mol insulin incorporated): 4±0.3% | biological (lipogenic) potency relative to native insulin ([2]; 2.2 mol PEG5000-Fmoc/mol insulin incorporated): less than 1%

Nα-Nε-diacetyl-PYY3-36: PYY3-36 acetylated at its two amino groups [reference compound]
food consumed in 2 h re-feeding ([3]; 20 μg per mouse): 10.54±0.08 g chow per 10 mice

insulin: Human (Zn2+-free) insulin [reference compound]
stimulation of lipogenesis above basal levels [2]: 4-6 times above basal and 4-5 times above basal | ED50 for stimulation of lipogenesis ([2]; rat adipocytes, Example 28 assay): 0.2 ± 0.02 ng/mL and 0.15 ± 0.03 ng/mL | time of maximal fall of circulating glucose ([4]; IP, 0.345 nmoles/mouse): 15 min | time of maximal reduction of blood glucose level ([4]; SC, 1.72 nmol/mouse): 30 min | ED50 in lipogenic assay [5]: 0.3 ± 0.01 ng/mL and 0.3 ng/mL | t1/2 of decline in blood [6]: 9.0 ± 1.0 h | time of peak value in blood after administration [6]: 1 ± 0.1 h

(PEG5000-Fmoc)2-insulin: insulin conjugate containing two moles of PEG5000-Fmoc/mole insulin
lipogenic activity, % of native insulin potency ([2]; after 30±2 hours at pH 8.5, 37° C.): 45±3% | lipogenic activity, % of native insulin potency ([2]; after 80±4 hours at pH 8.5, 37° C.): 90% | lag period before regeneration of lipogenic potency ([2]; incubation at pH 8.5, 37° C.): 10 ± 1 h and 10 h

(PEG5000-Fmoc)1-insulin: about one mol PEG-Fmoc per mol insulin
lipogenic activity, % of native potency ([2]; after 2 hours at pH 8.5, 37° C.): 16% | lipogenic activity, % of native potency ([2]; after 4 hours at pH 8.5, 37° C.): 24% | lipogenic activity, % of native potency ([2]; after 10 hours at pH 8.5, 37° C.): 30% | lipogenic activity, % of native potency ([2]; after 17 hours at pH 8.5, 37° C.): 36% | lipogenic activity, % of native potency ([2]; after 80 hours at pH 8.5, 37° C.): 95% | biological (lipogenic) potency of the native hormone ([2]; prior to hydrolysis / time 0): 7±1% | return to normoglycemia, slower than native hormone ([4]; IP administration): 3.4 fold | time of maximal fall of circulating glucose ([4]; IP, 3.45 nmoles/mouse): 60 min | time of return to normal glucose values after administration ([4]; IP, 3.45 nmoles/mouse): 6 h | additional time maintained at the low glucose level ([4]; SC, 17.2 nmoles/mouse): 4 h | time of maximal lowering of circulating glucose ([4]; SC, 17.2 nmoles/mouse): 4 h | half time of return to normoglycemic values relative to native insulin ([4]; single SC administration): 6.7 fold

gentamicin
IC50 [7]: 220 ± 20 nM | concentration inhibiting E. coli replication half-maximally [7]: 0.1 µg/mL

hGH: Recombinant hGH
t1/2 of clearance from the circulatory system [8]: 0.333 to 0.5 h

PEG40-FMS-hGH
receptor binding affinity ([1]; in vitro, prior to incubation): no receptor binding affinity | k (h^−1), slope of ln [PEG-FMS conjugate] against time [9]: 0.059 h^−1

PEG40-PYY3-36: Irreversibly pegylated PYY3-36, one PEG40 residue per PYY3-36 [reference compound]
biological activity of irreversibly pegylated PYY3-36 on food intake ([3]; SC 5 nmol/mouse, 1 h prior to re-feeding): No significant reduction in food intake

PEG40-FMS-PYY3-36: 1:1 conjugate of PEG40-SH and MAL-FMS-PYY3-36
food consumed in 2 h re-feeding [3, 11]: 4.7±0.14 g chow per 10 mice | reduction in food intake compared with saline [3, 11]: 52% | reduction in food intake ([3]; SC 5 nmol/mouse, 24 h prior to re-feeding): 27% | half-life of satiety effect, longer than unmodified PYY3-36 ([3]; mouse, in vivo): 8 fold | cumulative amount of free PYY3-36, % of input conjugate ([9]; after 40 h): 79%

(PEG5000)5 hGH: hGH with about five PEG5000 chains linked irreversibly (Clark et al., 1996)
biological potency of hGH [10]: less than 0.1%
